Assay results reported in patent US20240207216A1, “COMPOSITIONS AND METHOD FOR TREATING GUT PERMEABILITY CAUSED BY HYDROGEN SULFIDE PRODUCING BACTERIA” (UNM RAINFOREST INNOVATIONS, priority 2022, published 2024).

Tests used:
[1] = tested on: sulfate reducing bacteria; details: batch culture; cited from earlier work
[2] = tested on: Snail; assay: DSV-induced Snail protein expression by Western blot; assay type: cell-based, Human; details: 100 nM, 2 h before DSV MOI 20 for 24 h; DSV alone 7.14±0.73
Protocol: FIG. 16. Rapamycin reduces DSV-induced Snail protein expression. Polarized Caco-2 cells were treated with 100 nM rapamycin for two hours, followed by DSV infection (MOI 20) for 24 hours. Cells were harvested and lysed. (A) Protein lysate was analyzed for Snail expression by Western blotting. (B) Quantitation of Snail expression from Western blot in (A). DSV: 7.14±0.73; DSV+Rapamycin: 3.10±0.74, **p<0.01.
Human colonic epithelial cells Caco-2 were purchased from the American Type Culture Collection (ATCC, Manassas, VA). Cells were grown in DMEM+20% FBS+penicillin and streptomycin (Thermo Fisher Scientific, Inc., Waltham, MA). Cells were grown at 37° C. in a humidified incubator with 5% CO2. To allow polarization and differentiation, cells were seeded at a density of 5×10^3 cells/well in 12-well 0.4 μm trans-well inserts for three weeks. Twenty-four hours before infection, growth medium was replaced with colorless medium (DMEM+20^0/o FBS) without antibiotics. […]
Cells were lysed in lysis buffer (Thermo Fisher Scientific, Inc., Waltham, MA; catalog #87787) containing protease and phosphatase inhibitors (Thermo Fisher Scientific, Inc., Waltham, MA; catalog #1861281) for 20 minutes at 4° C. with shaking. […] Protein concentration in the supernatants was determined with Bradford reagent (Bio-Rad Laboratories, Inc., Hercules, CA). […]

[3] = tested on: PI3K/Akt pathway; assay: DSV-induced PI3K/Akt signaling with receptor antagonists; assay type: cell-based, murine; details: pretreatment of cells before DSV
Protocol: PI3k/Akt pathway is activated downstream of receptors such as RTKs and G-protein coupled receptors and also by TLRs activation which is often observed in the case of infections with various bacteria. Thus, cells were treated with different TLR antagonists to check for the involvement of TLR 2, TLR 4, or TLR 5 in DSV-mediated activation of PI3K/Akt pathway. […] DSV-induced phosphorylation of AKT was inhibited by C29 (DSV:3.18±0.30; DSV+C29: 1.58±0.29, p<0.05, FIG. 14, FIG. 15A). […] PI3K/Akt is classically activated by a vast number of stimuli through receptor tyrosine kinases (RTK). Thus, tryphostin AS1478, a common tyrosine kinase inhibitor, was used as an antagonist to EGFR signaling to test whether DSV-induced PI3k/Akt/TNF/iNOS pathway was dependent on RTK-mediated signaling.

[4] = tested on: secreted TNF-α; assay: DSV-induced secreted TNF-α, Western blot of RAW cell culture supernatant; assay type: cell-based, murine; details: 200 μM, 3 h before DSV 4 h; DSV alone 38.09±5.188
Protocol: FIG. 12. LY294002 inhibits DSV-induced activation of PI3K/Akt/TNF pathway. (A) RAW cells were treated with LY at either 10 μM or 50 μM for one hour before infection with DSV for four hours. Cells were lysed and protein lysate was prepared. Fifty μg of protein lysate was separated on SDS-PAGE and analyzed for p-Akt, Akt, TNF, iNOS, p-p70S6K, and total p70S6K by Western blotting. Actin was used as a loading control. (B) Quantification of p-Akt-Akt Western blot. (C) Quantification of p-P70/P70 Western blot. (D) Quantification of TNF-α/actin Western blot. (E) Post-infection, RAW cell culture supernatant was collected and proteins were precipitated using ethanol precipitation. Proteins were resuspended in PBS and 50 μg of proteins were loaded on SDS-PAGE and secreted TNF-α was detected using TNF-α antibody. Actin was used as a loading control.
(§1) RAW 264.7 murine macrophage-like cells were grown in DMEM+10% FBS without any use of antibiotics or antimycotics. Cells were grown at 37° C. in a humidified incubator with 5% CO2. Prior to the day of infection, 8×10^5 cells were plated in a six-well plate and infected with DSV at multiplicity of infection 20 (MOI 20) for various times. For drug treatments, cells were incubated with LY294002 at 10 μM or 50 μM for one hour followed by DSV infection for 30 minutes or four hours. For TL2-C29 treatment, cells were incubated with the inhibitor at 200 μM for three hours followed by infection with DSV for four hours.
Cells were lysed in Lysis buffer containing protease and phosphatase inhibitors (Thermo Fisher Scientific, Inc., Waltham, MA) for 20 minutes at 4° C. Lysates were centrifuged at 12,000 rpm for five mins at 4° C. and supernatants were collected. Protein concentration in the supernatants was determined with Bradford reagent (Bio-Rad Laboratories, Inc., Hercules, CA). 50 μg of protein samples were run on SDS-PAGE (4-20% tris-glycine) and transferred to nitrocellulose membranes. Membranes were blocked in 5% milk in PBS-T (0.1% Tween 20) for 30 minutes followed by overnight incubation in primary antibodies in cold room. […]

[5] = tested on: TNF-α; assay: DSV-induced cellular TNF-α expression, Western blot in RAW cells; assay type: cell-based, murine; details: 200 μM, 3 h before DSV 4 h; DSV alone 24.67±2.51
Protocol: as §1
(§2) Cells were lysed in Lysis buffer containing protease and phosphatase inhibitors (Thermo Fisher Scientific, Inc., Waltham, MA) for 20 minutes at 4° C. Lysates were centrifuged at 12,000 rpm for five mins at 4° C. and supernatants were collected. Protein concentration in the supernatants was determined with Bradford reagent (Bio-Rad Laboratories, Inc., Hercules, CA). 50 μg of protein samples were run on SDS-PAGE (4-20% tris-glycine) and transferred to nitrocellulose membranes. Membranes were blocked in 5% milk in PBS-T (0.1% Tween 20) for 30 minutes followed by overnight incubation in primary antibodies in cold room. All antibodies except iNOS were purchased from Cell Signaling Technology (Danvers, MA): Actin (4970), p-AktS473(4060), p-Akt T308(13038), Akt (9272), p-P70S6K (9205), P70S6K (2708, TNF-α (19948). iNOS antibody was purchased from Abcam (Cambridge United Kingdom). Antibodies were diluted as recommended by the manufacturer. The following day, blots were washed with PBS-T and incubated with secondary antibodies (Cell Signaling Technology, Danvers, MA) at room temperature for one hour (dilution of 1:2000) and developed using enhanced chemiluminescence HRP signal (Thermo Fisher Scientific, Inc., Waltham, MA).
(§3) All graphs were generated using PRISM 9.4.1 GraphPad Software Inc., San Diego, CA). Data is plotted as Mean±SEM relative to control. Each experiment was conducted at least three independent times. […]

[6] = tested on: iNOS; assay: DSV-induced iNOS expression, Western blot in RAW cells; assay type: cell-based, murine; details: 200 μM, 3 h before DSV 4 h; DSV alone 30.25±6.82
Protocol: as §1, §2, §3

[7] = tested on: p-Akt/Akt; assay: DSV-induced Akt phosphorylation, Western blot in RAW cells; assay type: cell-based, murine; details: 200 μM, 3 h before DSV 4 h; DSV alone 3.18±0.30
Protocol: as §1, §2, §3

In the case of `[Mg+2].[O-][O-]` [magnesium peroxide (MgO2), magnesium peroxide], the “number of sulfate reducing bacteria” value [1] is listed as “inhibited”, the “sulfate reducing rate (SRR)” value [1] is listed as “inhibited” and the sulfide concentration [1] is listed as “inhibited”.
With `CO[C@H]1C[C@@H]2CC[C@@H](C)[C@@](O)(O2)C(=O)C(=O)N2CCCC[C@H]2C(=O)O[C@H]([C@H](C)C[C@@H]2CC[C@@H](O)[C@H](OC)C2)CC(=O)[C@H](C)/C=C(\C)[C@@H](O)[C@@H](OC)C(=O)[C@H](C)C[C@H](C)/C=C/C=C/C=C/1C` [Rapamycin, rapamycin] the “Snail expression from Western blot” value [2] was 3.10±0.74.
With `c1ccc(Cn2c(Sc3ncnc4c3sc3ncccc34)nnc2-c2ccncc2)cc1` [TH1020] the “effect on DSV-induced PI3K/Akt signaling” value [3] was “Neither TLR4 antagonist TLR-IN-C34 nor TLR5 antagonist TH1020 had any discernable effect”.
In the case of `COc1cccc(C=Nc2cccc(C(=O)O)c2C)c1O` [C29], the “secreted TNF-α, normalized to control” value [4] is reported as 1.103±0.03408, the “cellular TNF-α protein, normalized to control” value [5] is reported as 8.57±2.81 and the “iNOS protein expression, normalized to control” value [6] is reported as 2.32±1.48. The “p-Akt/Akt, normalized to control” value [7] was 1.58±0.29.
In the case of `COc1cc2ncnc(Nc3cccc(Cl)c3)c2cc1OC` [tryphostin AS1478], the “effect on DSV-induced PI3K/Akt signaling” value [3] is reported as “No inhibition”.
In the case of `CC(=O)N[C@H]1[C@@H](OC(C)C)O[C@H](COC(C)=O)[C@@H](OC(C)=O)[C@@H]1OC(C)=O` [TLR-IN-C34], the “effect on DSV-induced PI3K/Akt signaling” value [3] is reported as “Neither TLR4 antagonist TLR-IN-C34 nor TLR5 antagonist TH1020 had any discernable effect”.
